Data taken from patent publication US4521335A, “Aglycone and pseudo-aglycones of the AAD 216 antibiotics” (SmithKline Beckman Corporation, priority 1984, dated 1985).

How the values were obtained:
[1] = test system: inoculum (ileal or cecal cannula filtrate); assay: swine in vitro model, growth promotant activity; conditions: 5 hours, 37° C.; for GLU (% Control): glucose; for LAC (% Control): lactic acid; for LYS (% Control): lysine; for VFA (% Control): total volatile fatty acids
[2] = test system: inoculum (rumen cannula filtrate); assay: rumen in vitro model, growth promotant activity; conditions: for GLU (% Control): glucose; for Propionate % (% Control): propionate as percentage of total VFA; for VFA (% Control): total volatile fatty acids; for LYS (% Control): lysine

avoparcin was tested, and the “GLU (% Control)” value ([1]; experiment II, 1.67 ppm) was 115 % Control, the “LAC (% Control)” value ([1]; experiment II, 1.67 ppm) was 102 % Control and the “LYS (% Control)” value ([1]; experiment II, 1.67 ppm) was 101 % Control.
With Virginiamycin the “GLU (% Control)” value ([1]; experiment I, 1.67 ppm) was 182 % Control, the “LAC (% Control)” value ([1]; experiment I, 1.67 ppm) was 70 % Control and the “LYS (% Control)” value ([1]; experiment I, 1.67 ppm) was 82 % Control. The “GLU (% Control)” value ([1]; experiment I, 16.67 ppm) was 191 % Control, the “LAC (% Control)” value ([1]; experiment I, 16.67 ppm) was 76 % Control and the “LYS (% Control)” value ([1]; experiment I, 16.67 ppm) was 127 % Control. For the same molecule, the “GLU (% Control)” value ([1]; experiment I, 166.67 ppm) was 197 % Control, the “LAC (% Control)” value ([1]; experiment I, 166.67 ppm) was 81 % Control and the “LYS (% Control)” value ([1]; experiment I, 166.67 ppm) was 163 % Control. For the same molecule, the “VFA (% Control)” value ([1]; experiment I, 166.67 ppm) was 93 % Control, the “GLU (% Control)” value ([1]; experiment II, 1.67 ppm) was 837 % Control and the “LAC (% Control)” value ([1]; experiment II, 1.67 ppm) was 21 % Control. For the same molecule, the “LYS (% Control)” value ([1]; experiment II, 1.67 ppm) was 96 % Control and the “VFA (% Control)” value ([1]; experiment II, 1.67 ppm) was 240 % Control.
With `CC[C@@]1([C@H]2O[C@H]([C@H]3O[C@@](O)(CO)[C@H](C)C[C@@H]3C)C[C@H]2C)CC[C@H]([C@@]2(C)CC[C@]3(C[C@H](O)[C@@H](C)[C@@H]([C@H](C)[C@H](OC)[C@@H](C)C(=O)O)O3)O2)O1` [Monensin Sodium] the “GLU (% Control)” value ([2]; experiment III, 0.5 ppm) was 11 % Control, the “Propionate % (% Control)” value ([2]; experiment III, 0.5 ppm) was 119 % Control and the “VFA (% Control)” value ([2]; experiment III, 0.5 ppm) was 94 % Control. For the same molecule, the “GLU (% Control)” value ([2]; experiment III, 5.0 ppm) was 126 % Control, the “LYS (% Control)” value ([2]; experiment III, 5.0 ppm) was 141 % Control and the “Propionate % (% Control)” value ([2]; experiment III, 5.0 ppm) was 149 % Control. For the same molecule, the “VFA (% Control)” value ([2]; experiment III, 5.0 ppm) was 104 % Control, the “GLU (% Control)” value ([2]; experiment III, 50.0 ppm) was 0 % Control and the “LYS (% Control)” value ([2]; experiment III, 50.0 ppm) was 147 % Control. For the same molecule, the “Propionate % (% Control)” value ([2]; experiment III, 50.0 ppm) was 156 % Control, the “LYS (% Control)” value ([2]; experiment IV, 5.0 ppm) was 595 % Control and the “Propionate % (% Control)” value ([2]; experiment IV, 5.0 ppm) was 161 % Control. The “VFA (% Control)” value ([2]; experiment IV, 5.0 ppm) was 106 % Control.
